Structures are written as SMILES. Where “and” joins values, the source holds several entries; their conditions need not be identical. Equal entries are not always repeated. Inconclusive results and toxic doses are left out.

These results are taken from PubChem BioAssay AID252 (DTP/NCI, 2004).

The subject of the test is BDF1 mice, intracerebral L1210 leukemia, survival T/C. The experiment in a line: NCI In Vivo Anticancer Drug Screen. Data for tumor model L1210 Leukemia (intracerebral) in B6D2F1 (BDF1) mice. Conditions: endpoint: mean survival time, higher = longer survival. Put shortly: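 Transplantable tumour-bearing mice, compound-treated vs vehicle controls; read-out survival, reported as T/C ratio.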

Turning to `O=C1C(NC(=O)C2CCCCC2)=C(N2CC2)C(=O)C(NC(=O)C2CCCCC2)=C1N1CC1`, the T/C (dose: 25.0 mg/kg/injection, schedule: Q01DX009 (ip), vehicle: Klucel (hydroxypropylcellulose) (HPC)) was 111 % of control; the T/C (dose: 50.0 mg/kg/injection, schedule: Q01DX009 (ip), vehicle: Klucel (hydroxypropylcellulose) (HPC)) was 101 % of control and 102 % of control and 241 % of control; the T/C (dose: 50.0 mg/kg/injection, schedule: Q01DX Z (ip), vehicle: carboxymethylcellulose (CMC)) is 104 % of control; the T/C (dose: 100.0 mg/kg/injection, schedule: Q01DX Z (ip), vehicle: carboxymethylcellulose (CMC)) is 103 % of control; the T/C (dose: 200.0 mg/kg/injection, schedule: Q01DX009 (ip), vehicle: Klucel (hydroxypropylcellulose) (HPC)) is 105 % of control and 115 % of control and 119 % of control; the T/C (dose: 200.0 mg/kg/injection, schedule: Q01DX Z (ip), vehicle: carboxymethylcellulose (CMC)) is 103 % of control. Besides, the T/C was 119 % of control and 97 % of control (dose: 400.0 mg/kg/injection, schedule: Q01DX009 (ip), vehicle: Klucel (hydroxypropylcellulose) (HPC)); 116 % of control (dose: 400.0 mg/kg/injection, schedule: Q01DX Z (ip), vehicle: carboxymethylcellulose (CMC)); 96 % of control and 98 % of control (dose: 440.0 mg/kg/injection, schedule: Q01DX001 (ip), vehicle: carboxymethylcellulose (CMC)); 104 % of control and 97 % of control (dose: 670.0 mg/kg/injection, schedule: Q01DX001 (ip), vehicle: carboxymethylcellulose (CMC)); 104 % of control (dose: 800.0 mg/kg/injection, schedule: Q01DX009 (ip), vehicle: Klucel (hydroxypropylcellulose) (HPC)); 102 % of control and 103 % of control (dose: 1000.0 mg/kg/injection, schedule: Q01DX001 (ip), vehicle: carboxymethylcellulose (CMC)).

Regarding `CC(=O)OCC1OC(n2cnc3c(=S)nc(N)[nH]c32)C(OC(C)=O)C1OC(C)=O` (configuration not stated), the T/C (dose: 37.5 mg/kg/injection, schedule: Q01DX Z (ip), vehicle: other) was 122 % of control.

On to `CN1CCN(CCCN2c3ccccc3Sc3ccc(C(F)(F)F)cc32)CC1`, for which, where the note is “dose: 44.0 mg/kg/injection, schedule: Q04DX003 (ip), vehicle: water”, the T/C was 108 % of control.

On to `C[n+]1ccc(Nc2ccc(NC(=O)c3ccc(Nc4cc[n+](C)c5ccc(N)cc45)cc3N)cc2)cc1`, for which the T/C reads like this: (dose: 1.0 mg/kg/injection, schedule: Q01DX009 (ip), vehicle: water) 93 % of control; (dose: 2.0 mg/kg/injection, schedule: Q01DX009 (ip), vehicle: water) 97 % of control; (dose: 4.0 mg/kg/injection, schedule: Q01DX009 (ip), vehicle: water) 104 % of control; (dose: 8.0 mg/kg/injection, schedule: Q01DX009 (ip), vehicle: water) 112 % of control.

With `C1CN1c1nc(N2CC2)nc(N2CC2)n1`, the T/C reads like this: (dose: 0.15 mg/kg/injection, schedule: Q01DX Z (ip), vehicle: saline) 113 % of control; (dose: 0.25 mg/kg/injection, schedule: Q01DX Z (ip), vehicle: saline) 119 % of control; (dose: 0.5 mg/kg/injection, schedule: Q01DX Z (ip), vehicle: saline) 160 % of control; (dose: 0.75 mg/kg/injection, schedule: Q01DX Z (ip), vehicle: saline) 156 % of control; (dose: 1.0 mg/kg/injection, schedule: Q01DX Z (ip), vehicle: saline) 124 % of control; (dose: 1.5 mg/kg/injection, schedule: Q01DX Z (ip), vehicle: saline) 97 % of control. Besides, the T/C (dose: 2.1 mg/kg/injection, schedule: Q01DX001 (ip), vehicle: saline) was 153 % of control and the T/C (dose: 3.2 mg/kg/injection, schedule: Q01DX001 (ip), vehicle: saline) is 182 % of control.

For `O=NN(CCCl)C(=O)NCCCl`, the T/C (dose: 2.0 mg/kg/injection, schedule: Q01DX009 (ip), vehicle: saline) was 122 % of control; the T/C (dose: 3.0 mg/kg/injection, schedule: Q04DX003 (ip), vehicle: saline) is 151 % of control; the T/C (dose: 3.7 mg/kg/injection, schedule: Q01DX001 (ip), vehicle: other) is 114 % of control; the T/C (dose: 4.0 mg/kg/injection, schedule: Q01DX009 (ip), vehicle: other) was 174 % of control; the T/C (dose: 4.0 mg/kg/injection, schedule: Q01DX009 (ip), vehicle: saline) was 154 % of control; the T/C (dose: 5.0 mg/kg/injection, schedule: Q01DX001 (ip), vehicle: other) is 117 % of control. Also, the T/C is, setting by setting: (dose: 5.0 mg/kg/injection, schedule: Q01DX001 (ip), vehicle: saline) 121 % of control; (dose: 6.0 mg/kg/injection, schedule: Q04DX003 (ip), vehicle: saline) 173 % of control; (dose: 7.0 mg/kg/injection, schedule: Q01DX001 (ip), vehicle: other) 119 % of control; (dose: 8.0 mg/kg/injection, schedule: Q01DX005 (ip), vehicle: saline) 175 % of control; (dose: 8.0 mg/kg/injection, schedule: Q01DX009 (ip), vehicle: other) 225 % of control; (dose: 8.0 mg/kg/injection, schedule: Q01DX009 (ip), vehicle: saline) 197 % of control. The T/C reads like this: (dose: 8.4 mg/kg/injection, schedule: Q01DX001 (ip), vehicle: saline) 117 % of control and 122 % of control; (dose: 9.75 mg/kg/injection, schedule: Q01DX001 (ip), vehicle: saline) 150 % of control and 153 % of control and 173 % of control; (dose: 10.0 mg/kg/injection, schedule: Q01DX001 (oral), vehicle: saline) 120 % of control; (dose: 11.0 mg/kg/injection, schedule: Q04DX003 (ip), vehicle: saline + alcohol) 203 % of control; (dose: 12.0 mg/kg/injection, schedule: Q04DX003 (ip), vehicle: saline) 250 % of control; (dose: 13.0 mg/kg/injection, schedule: Q01DX001 (ip), vehicle: saline) 219 % of control and 284 % of control. Moreover, the T/C was 186 % of control (dose: 14.0 mg/kg/injection, schedule: Q01DX001 (sc), vehicle: saline); 153 % of control and 155 % of control (dose: 15.0 mg/kg/injection, schedule: Q01DX001 (ip), vehicle: other); 175 % of control (dose: 15.0 mg/kg/injection, schedule: Q01DX001 (ip), vehicle: saline); 123 % of control (dose: 16.0 mg/kg/injection, schedule: Q01DX009 (ip), vehicle: other); 103 % of control (dose: 16.0 mg/kg/injection, schedule: Q01DX009 (ip), vehicle: saline); 197 % of control and 202 % of control and 226 % of control (dose: 19.5 mg/kg/injection, schedule: Q01DX001 (ip), vehicle: saline). Moreover, the T/C was 217 % of control and 250 % of control (2×) (dose: 19.7 mg/kg/injection, schedule: Q01DX001 (oral), vehicle: saline); 174 % of control (dose: 20.0 mg/kg/injection, schedule: Q01DX001 (ip), vehicle: other); 159 % of control and 172 % of control (dose: 20.0 mg/kg/injection, schedule: Q01DX001 (oral), vehicle: saline); 276 % of control (dose: 22.0 mg/kg/injection, schedule: Q04DX003 (ip), vehicle: saline + alcohol); 228 % of control (dose: 23.0 mg/kg/injection, schedule: Q01DX001 (sc), vehicle: saline); 236 % of control (dose: 24.0 mg/kg/injection, schedule: Q01DX001 (ip), vehicle: saline). The T/C is 263 % of control and 357 % of control (dose: 25.0 mg/kg/injection, schedule: Q01DX001 (ip), vehicle: saline); 261 % of control (dose: 25.0 mg/kg/injection, schedule: Q01DX001 (oral), vehicle: saline); 266 % of control and 297 % of control (dose: 29.0 mg/kg/injection, schedule: Q01DX001 (ip), vehicle: saline); 225 % of control and 440 % of control (dose: 30.0 mg/kg/injection, schedule: Q01DX001 (ip), vehicle: saline); 246 % of control and 269 % of control (dose: 31.0 mg/kg/injection, schedule: Q01DX001 (ip), vehicle: other); 241 % of control (dose: 39.0 mg/kg/injection, schedule: Q01DX001 (sc), vehicle: saline). For the same molecule, the T/C is 269 % of control and 387 % of control and 405 % of control (dose: 39.5 mg/kg/injection, schedule: Q01DX001 (oral), vehicle: saline); 333 % of control (dose: 40.0 mg/kg/injection, schedule: Q01DX001 (ip), vehicle: other); 87 % of control (dose: 44.0 mg/kg/injection, schedule: Q04DX003 (ip), vehicle: saline + alcohol); 296 % of control (dose: 48.0 mg/kg/injection, schedule: Q01DX001 (ip), vehicle: saline); 150 % of control (dose: 50.0 mg/kg/injection, schedule: Q01DX001 (ip), vehicle: saline); 238 % of control (dose: 50.0 mg/kg/injection, schedule: Q01DX001 (oral), vehicle: saline). The T/C is 112 % of control (dose: 60.0 mg/kg/injection, schedule: Q01DX001 (ip), vehicle: saline); 117 % of control (dose: 62.0 mg/kg/injection, schedule: Q01DX001 (ip), vehicle: other); 162 % of control (dose: 65.0 mg/kg/injection, schedule: Q01DX001 (sc), vehicle: saline); 172 % of control and 175 % of control (dose: 79.0 mg/kg/injection, schedule: Q01DX001 (oral), vehicle: saline).
